Data reported in patent US9738932B2, “Biomarkers for cardiovascular side-effects induced by cox-2 inhibitory compounds” (FIRALIS SAS, priority 2005, dated 2017).

Tested on: mRNA expression in cardiovascular tissues
Experiment: Affymetrix GeneChip mRNA expression profiling of monkey tissues (iliac vein, pulmonary vein, aorta, carotid artery, heart) after two-week oral-gavage treatment
Details: iliac vein
[1] = group average (Vioxx without A60055)
[2] = group avg, Vioxx without A60055

In the case of Cc1ccc(Nc2c(F)cccc2Cl)c(CC(=O)O)c1 [COX189, Lumiracoxib], the “ACE (209749_s_at) mRNA expression, Avg fold changes vs control” value [1] is reported as 0.8 fold, the “B2M (216231_s_at) mRNA expression, Avg fold changes vs control” value [1] is reported as 1.1 fold and the “BCL6 (215990_s_at) mRNA expression, Avg fold changes vs control” value [1] is reported as 1.4 fold. The “BTN2A2 (205298_s_at) mRNA expression, Avg fold changes vs control” value [1] was 1.3 fold, the “CCR1 (205098_at) mRNA expression, Avg fold changes vs control” value [1] was 0.8 fold and the “CD2 (205831_at) mRNA expression, Avg fold changes vs control” value [1] was 1.1 fold. For the same compound, the “CD48 (204118_at) mRNA expression, Avg fold changes vs control” value [1] was 1.0 fold, the “CD53 (203416_at) mRNA expression, Avg fold changes vs control” value [1] was 1.0 fold and the “CDC2 (210559_s_at) mRNA expression, Avg fold changes vs control” value [1] was 1.0 fold. For the same compound, the “CYBB (203922_s_at) mRNA expression, Avg fold changes vs control” value [1] was 0.9 fold, the “EMP3 (203729_at) mRNA expression, Avg fold changes vs control” value [1] was 0.8 fold and the “FCER1G (204232_at) mRNA expression, Avg fold changes vs control” value [1] was 1.0 fold. The “FCGR2A (203561_at) mRNA expression, Avg fold changes vs control” value [1] was 0.8 fold, the “FCGRT (218831_s_at) mRNA expression, Avg fold changes vs control” value [1] was 1.0 fold and the “FKBP11 (219117_s_at) mRNA expression, Avg fold changes vs control” value [1] was 0.7 fold. The “FKBP11 (219118_at) mRNA expression, Avg fold changes vs control” value [1] was 0.8 fold, the “GP6 (220336_s_at) mRNA expression, Avg fold changes vs control” value [1] was 1.2 fold and the “HCLS1 (202957_at) mRNA expression, Avg fold changes vs control” value [1] was 1.0 fold. The “HEM1 (209734_at) mRNA expression, Avg fold changes vs control” value [1] was 1.0 fold, the “HLA-A (210514_x_at) mRNA expression, Avg fold changes vs control” value [1] was 1.2 fold and the “HLA-A (213932_x_at) mRNA expression, Avg fold changes vs control” value [1] was 1.2 fold. The “HLA-C (211799_x_at) mRNA expression, Avg fold changes vs control” value [1] was 1.5 fold, the “HLA-E (200904_at) mRNA expression, Avg fold changes vs control” value [1] was 1.0 fold and the “HLA-F (221978_at) mRNA expression, Avg fold changes vs control” value [1] was 1.4 fold. For the same compound, the “ICAM1 (202637_s_at) mRNA expression, Avg fold changes vs control” value [1] was 1.0 fold, the “IL13RA1 (210904_s_at) mRNA expression, Avg fold changes vs control” value [1] was 1.1 fold and the “PIK3CD (203879_at) mRNA expression, Avg fold changes vs control” value [1] was 1.1 fold. The “PRKCBP1 (209048_s_at) mRNA expression, Avg fold changes vs control” value [1] was 1.1 fold, the “PRKCBP1 (209049_s_at) mRNA expression, Avg fold changes vs control” value [1] was 0.9 fold and the “PTPN7 (204852_s_at) mRNA expression, Avg fold changes vs control” value [1] was 1.0 fold. For the same compound, the “SIGIRR (52940_at) mRNA expression, Avg fold changes vs control” value [1] was 0.9 fold, the “STAT1 (200887_s_at) mRNA expression, Avg fold changes vs control” value [1] was 1.3 fold and the “STAT1 (AFFX-HUMISGF3A/M97935_3_at) mRNA expression, Avg fold changes vs control” value [1] was 1.3 fold. The “STAT3 (208992_s_at) mRNA expression, Avg fold changes vs control” value [1] was 1.0 fold, the “TCIRG1 (204158_s_at) mRNA expression, Avg fold changes vs control” value [1] was 1.0 fold and the “THY1 (213869_x_at) mRNA expression, Avg fold changes vs control” value [1] was 0.9 fold. The “TMPO (209753_s_at) mRNA expression, Avg fold changes vs control” value [1] was 0.9 fold, the “TMSB10 (217733_s_at) mRNA expression, Avg fold changes vs control” value [1] was 1.1 fold and the “TNFRSF21 (218856_at) mRNA expression, Avg fold changes vs control” value [1] was 1.1 fold. The “TRB@ (210915_x_at) mRNA expression, Avg fold changes vs control” value [1] was 1.3 fold, the “TRB@ (213193_x_at) mRNA expression, Avg fold changes vs control” value [1] was 1.2 fold and the “209813_x_at avg fold change vs control” value [2] was 1.0 fold. The “AIF1 (209901_x_at) avg fold change vs control” value [2] was 0.7 fold, the “AIF1 (213095_x_at) avg fold change vs control” value [2] was 0.5 fold and the “B2M (201891_s_at) avg fold change vs control” value [2] was 1.0 fold. The “BCL3 (204908_s_at) avg fold change vs control” value [2] was 1.0 fold, the “BTN3A1 (207485_x_at) avg fold change vs control” value [2] was 2.1 fold and the “BTN3A3 (38241_at) avg fold change vs control” value [2] was 1.0 fold. For the same compound, the “BTN3A3 (204820_s_at) avg fold change vs control” value [2] was 1.1 fold, the “BTN3A3 (204821_at) avg fold change vs control” value [2] was 1.5 fold and the “C1QA (218232_at) avg fold change vs control” value [2] was 1.0 fold. For the same compound, the “C1QB (202953_at) avg fold change vs control” value [2] was 1.0 fold, the “C1R (212067_s_at) avg fold change vs control” value [2] was 1.0 fold and the “C1S (208747_s_at) avg fold change vs control” value [2] was 1.0 fold. The “C2 (203052_at) avg fold change vs control” value [2] was 1.1 fold, the “C4A (208451_s_at) avg fold change vs control” value [2] was 0.9 fold and the “CASP1 (209970_x_at) avg fold change vs control” value [2] was 1.1 fold. For the same compound, the “CASP1 (211367_s_at) avg fold change vs control” value [2] was 1.2 fold, the “CCL2 (216598_s_at) avg fold change vs control” value [2] was 1.6 fold and the “CCL3 (205114_s_at) avg fold change vs control” value [2] was 0.9 fold. For the same compound, the “CCL5 (1405_i_at) avg fold change vs control” value [2] was 0.9 fold, the “CCL8 (214038_at) avg fold change vs control” value [2] was 1.7 fold and the “CCL18 (209924_at) avg fold change vs control” value [2] was 2.3 fold. For the same compound, the “CCL19 (210072_at) avg fold change vs control” value [2] was 1.4 fold, the “CCNB2 (202705_at) avg fold change vs control” value [2] was 1.4 fold and the “CD3D (213539_at) avg fold change vs control” value [2] was 1.7 fold. For the same compound, the “CD8A (205758_at) avg fold change vs control” value [2] was 1.2 fold, the “CD14 (201743_at) avg fold change vs control” value [2] was 0.7 fold and the “CD74 (209619_at) avg fold change vs control” value [2] was 1.0 fold. For the same compound, the “CLU (208791_at) avg fold change vs control” value [2] was 1.0 fold, the “CMAH (210571_s_at) avg fold change vs control” value [2] was 1.1 fold and the “CTSC (201487_at) avg fold change vs control” value [2] was 1.1 fold. The “CTSK (202450_s_at) avg fold change vs control” value [2] was 1.2 fold, the “CTSS (202902_s_at) avg fold change vs control” value [2] was 1.1 fold and the “CX3CR1 (205898_at) avg fold change vs control” value [2] was 1.2 fold. For the same compound, the “CXCL9 (203915_at) avg fold change vs control” value [2] was 1.7 fold, the “CXCL10 (204533_at) avg fold change vs control” value [2] was 1.4 fold and the “CXCL11 (210163_at) avg fold change vs control” value [2] was 2.6 fold. The “CXCL11 (211122_s_at) avg fold change vs control” value [2] was 2.3 fold, the “CXCL12 (209687_at) avg fold change vs control” value [2] was 0.8 fold and the “CYBA (203028_s_at) avg fold change vs control” value [2] was 1.2 fold. The “CYBB (203923_s_at) avg fold change vs control” value [2] was 1.0 fold, the “CYP1B1 (202436_s_at) avg fold change vs control” value [2] was 1.3 fold and the “CYP3A5 (214234_s_at) avg fold change vs control” value [2] was 1.3 fold. The “CYP11B1 (214630_at) avg fold change vs control” value [2] was 1.0 fold, the “DUSP6 (208893_s_at) avg fold change vs control” value [2] was 0.9 fold and the “ECGF1 (204858_s_at) avg fold change vs control” value [2] was 1.7 fold. The “ECM1 (209365_s_at) avg fold change vs control” value [2] was 1.0 fold, the “F2RL1 (206429_at) avg fold change vs control” value [2] was 1.8 fold and the “F13A1 (203305_at) avg fold change vs control” value [2] was 1.1 fold. For the same compound, the “FCGR1A (214511_x_at) avg fold change vs control” value [2] was 1.0 fold, the “FCGR3A (204006_s_at) avg fold change vs control” value [2] was 1.0 fold and the “G1P2 (205483_s_at) avg fold change vs control” value [2] was 1.5 fold. The “GZMB (210164_at) avg fold change vs control” value [2] was 0.8 fold, the “HCA127 (220040_x_at) avg fold change vs control” value [2] was 0.9 fold and the “HCK (208018_s_at) avg fold change vs control” value [2] was 1.1 fold. The “HFE (210864_x_at) avg fold change vs control” value [2] was 1.3 fold.
